Where “and” joins values, the source holds several entries; their conditions need not be identical. Equal values may be shown once.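 96-well plates; 48 h exposure; 5 concentrations. Endpoints by linear interpolation between flanking doses. Not reached: highest tested concentration assigned. The concentration for 50% growth inhibition is given as GI50. TGI marks complete inhibition of growth.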
Tests used:
Test in all cases: inhibition of tumour cell growth, NCI panel, 48 h
[1] = test system: BT-549 breast
[2] = test system: CCRF-CEM leukemia
[3] = test system: DU-145 prostate
[4] = test system: HL-60(TB) leukemia
[5] = test system: MCF7 breast
[6] = test system: MDA-N
[7] = test system: NCI-H226 lung
[8] = test system: NCI-H460 lung
[9] = test system: PC-3 prostate
[10] = test system: RXF 393 renal
[11] = test system: UO-31 renal
[12] = test system: M19-MEL melanoma
[13] = test system: KM20L2 colon

Row | SMILES | TGI [1] [µM] | TGI [2] | TGI [3] | TGI [4] | TGI [5] [µM] | TGI [6] [µM] | TGI [7] | TGI [8] [µM] | TGI [9] | TGI [10] [µM] | TGI [11] | GI50 [1] [µM] | GI50 [7] [µM] | GI50 [10] [µM] | GI50 [11] [µM] | GI50 [5] [µM] | GI50 [8] | TGI [12] [µM] | TGI [13] [µM]
1 | C#CC[C@@H]1C(=O)N(Cc2ccc(OC)cc2)[C@@H](C(C)C)C(=O)N1Cc1ccc(OC)cc1 | 93.7 | 36.2 µM | > 100 µM | 8.53 µM | 54.9 | 67.1 | > 100 µM | > 100 | > 100 µM | 25.6 | > 100 µM | – | – | – | – | – | – | – | –
2 | CCCCCC(=O)N[C@@H](c1ccco1)[C@@H](O)C(=O)O[C@H]1C[C@@]2(O)[C@@H](OC(=O)c3ccccc3)[C@@H]3[C@]4(OC(C)=O)CO[C@@H]4C[C@H](O)[C@@]3(C)C(=O)[C@H](OC(C)=O)C(=C1C)C2(C)C | – | – | 0.0101 µM | – | > 25 | – | – | > 25 | – | – | > 25 µM | 0.00109 | 0.00133 | 0.000206 | 0.187 | – | – | – | –
3 | C[N+](C)(CCCCCC[N+](C)(C)CCCN1C(=O)c2cccc3cccc(c23)C1=O)CCCN1C(=O)c2cccc3cccc(c23)C1=O | > 100 | > 100 µM | > 100 µM | > 100 µM | > 100 | > 100 | – | > 100 | > 100 µM | > 100 | > 100 µM | – | – | – | – | – | – | – | –
4 | COC(=O)C(CC(C)C)NC(=O)C(NC(=O)c1ccc(-c2ccc(Cl)cc2Cl)o1)C(C)C (stereo unspecified) | > 100 | 33.2 µM | 74.4 µM | 30.8 µM | 44.7 | > 100 | > 100 µM | 34.2 | > 100 µM | 47.2 | 61.2 µM | – | – | – | – | – | – | – | –
5 | CC(C)=CCCC(C)(OC1OC(CO)C(O)C(O)C1O)C1CCC2(C)C1C(O)CC1C3(C)CCC(O)C(C)(C)C3C(OC3OC(CO)C(O)C(O)C3OC3OC(C)C(O)C(O)C3O)CC12C (stereo unspecified) (tested in a mixture with another compound) | > 75 | > 75 µM | > 75 µM | > 75 µM | > 75 | > 75 | > 75 µM | > 7.5 | > 75 µM | – | > 75 µM | – | – | – | – | – | – | – | –
6 | COc1ccccc1/C=C(/C)[N+](=O)[O-] | – | 13 µM and > 100 µM | 3.12 µM and 2.36 µM | 4.21 µM and 5.4 µM | > 100 | – | 4.22 µM and 3.64 µM | – | 6.5 µM and 5.37 µM | 4.74 | 3.36 µM and 3.39 µM | – | – | 1.74 | – | 0.593 | 4.07 µM and 1.94 µM | – | –
7 | CC(C)(O)/C1=C/C=C/CCCCCCCCCC1 | > 100 | > 100 µM | > 100 µM | 98.6 µM | > 100 | > 100 | > 100 µM | > 100 | > 100 µM | – | > 100 µM | – | – | – | – | – | – | – | –
8 | COc1ccc(Nc2nc3ccccc3n3cccc23)cc1OC | 49.3 | 15.2 µM | 35.6 µM | 9.51 µM | 29.6 | 29.4 | – | 27.5 | 23.9 µM | 33.1 | 39.2 µM | – | – | – | – | – | – | – | –
9 | O=S(O)CCCCCSSc1ccccc1 | – | 50.3 µM | – | 88.1 µM | – | – | – | > 100 | – | 89.2 | > 100 µM | – | – | – | – | – | – | > 100 | –
10 | COc1cc(OC2OC(CO)C(O)C(O)C2O)c2c(O)c3c(=O)cc(C)oc3cc2c1 (stereo unspecified) | > 100 | > 100 µM | > 100 µM | > 100 µM | > 100 | – | > 100 µM | > 100 | > 100 µM | – | > 100 µM | – | – | – | – | – | – | – | –
11 | OCC1O[C@H](O[C@@H]2CCCN3CC(O)C(O)[C@@H]23)C(O)C(O)C1O (stereo partly specified) | – | > 100 µM | – | > 100 µM | – | – | > 100 µM | – | – | – | > 100 µM | – | – | – | – | – | – | > 100 | > 100
12 | FC(F)(F)c1ccc2c(c1)N(CCCNCCN1CCOCC1)c1ccccc1S2 | – | 30.4 µM | – | 22.2 µM | – | – | – | 38.5 | – | 9.11 | 17.5 µM | – | – | – | – | – | – | 22.5 | 17
13 | OCC#CCNCl | – | > 100 µM | – | > 100 µM | > 100 | – | > 100 µM | > 100 | – | > 100 | > 100 µM | – | – | – | – | – | – | > 100 | > 100
14 | CCOC(=O)Cc1cc(OC)c(OC)cc1/C(Cl)=C(\CO)c1ccc(OC)c(OC)c1 | – | > 100 µM | – | > 100 µM | – | – | – | > 100 | – | > 100 | > 100 µM | – | – | – | – | – | – | > 100 | > 100
15 | Cc1ccc(/C=C2\Sc3scc(-c4ccccc4)[n+]3C2=O)cc1 | 50.9 | 32.9 µM | > 65.9 µM | 5.31 µM | > 100 | > 67.1 | > 100 µM | 42.4 | > 100 µM | 90.2 | 32 µM | – | – | – | – | – | – | – | –
16 | Nc1nc(Nc2ccc(Cl)c(Cl)c2)nc2nc[nH]c12 | 25.8 | 41 µM | 21.6 µM | 31.9 µM | 45.6 | 33.5 | 50.2 µM | 34 | 41.2 µM | 20.1 | 21.3 µM | – | – | – | – | – | – | – | –
17 | CCNC(=O)C(C)C1CCC2(C)C=CC(=O)C(C)=C2C1O (stereo unspecified) | – | > 100 µM | – | > 100 µM | > 100 | – | > 100 µM | > 100 | – | > 100 | > 100 µM | – | – | – | – | – | – | > 100 | > 100
